Measured values reported in US12448372B2, “Class of triaromatic compounds targeting bifunctional phosphorylation site of STAT3 and applications thereof” (SHANGHAI YUYAO BIOTECH LTD., priority 2019, dated 2025).
Read-outs that look alike come from different tables or passages of the source.

Key:
STAT3 protein = STAT3 protein (Homo sapiens, UniProt P40763); assay: Binding activity to STAT3 protein by microscale thermophoresis (MST); conditions: purified STAT3 recombinant protein
Source text: (1) Determination of Binding Activities of Compounds to STAT3 Protein by Microscale Thermophoresis (MST) Method
The microscale thermophoresis (MST) technique is a simple, rapid, and accurate method for quantifying biomolecular interactions. It can measure the movement of molecules in a microscopic temperature gradient field, as well as detect changes of molecular hydration shell, charge and size. When the Nanotemper microscale thermophoresis instrument locally heated by a infrared laser, molecules will move in a directional manner, then the molecular distribution ratio in the temperature gradient field are analyzed by a fluorescence to detect whether a small molecule compound binds to a target protein. The experimental operation is as follows: firstly, compounds to be tested are diluted in a gradient using MST test buffer, total 16 concentrations being configured; subsequently, the purified STAT3 recombinant protein is labeled using the HIS tag labeling kit, and the final concentration of the labeled protein is 100-200 nM; the labeled STAT3 proteins are well mixed with the diluted compounds and incubated and protected from light for 30 minutes; finally the samples were loaded by capillary tube and detected on the instrument. The binding constants (K^D) of small molecules to STAT3 protein were analyzed by Mo. analysis software.

HCC827 = assay: Cell proliferation by MTS method, HCC827; assay type: cell-based; conditions: Table 1, HCC827, read-out: Tumour cell proliferative activity/IC50(nM) Lung Cancer HCC827
Source text: (§1) (2) Detection of Cell Proliferation by MTS Method
(§2) The MTS assay is a method for indirectly determining the number of living cells via colourimetric method. MTS is a newly synthesised tetrazole compound that reflects cell viability, which can be reduced by succinate dehydrogenase in the mitochondria of living cells to an orange-coloured formazan with an absorbance of the reduced product measured at 490 nm being in proportion to the number of living cells, thus reflecting the cell viability. This assay can be used to evaluate the effect of the compound on the proliferation of pancreatic cancer cells, thereby determining the inhibitory effect of the compound on the proliferation of pancreatic cancer cells and to calculate the IC^50. Each cells were inoculated uniformly into a 96-well plate at a density of 1-20×10^3 cells/well, 100 μL per well, and placed in a constant temperature incubator until the cells adhered to the wall. The control group was added with the corresponding medium and the experimental groups were given different concentrations of the compound prepared by the examples of the present invention, and the cells were taken out 24-96 h after administration for observing the cell state under a microscope. Under light-proof conditions, MTS was added and well mixed, the mixture was placed in a constant temperature incubator at 37° C., and the light absorption value were measured using an enzyme marker at 490 nm and the experiment was repeated for three times, IC50 was calculated with GraphPad5 Prism software.

MKN45 = assay: Cell proliferation by MTS method, MKN45; assay type: cell-based; conditions: Table 1, MKN45, read-out: Tumour cell proliferative activity/IC50(nM) gastric Cancer MKN45
Source text: as §1, §2

Capan-2 = assay: Cell proliferation by MTS method, Capan-2; assay type: cell-based; conditions: Table 1, Capan-2, read-out: Tumour cell proliferative activity/IC50(nM) Pancreatic Cancer Capan-2
Source text: as §1, §2

Huh7 = assay: Cell proliferation by MTS method, Huh7; assay type: cell-based; conditions: Table 1, Huh7, read-out: Tumour cell proliferative activity/IC50(nM) Liver Cancer Huh7
Source text: as §1, §2

Sequence of STAT3 protein (P40763 whole entry): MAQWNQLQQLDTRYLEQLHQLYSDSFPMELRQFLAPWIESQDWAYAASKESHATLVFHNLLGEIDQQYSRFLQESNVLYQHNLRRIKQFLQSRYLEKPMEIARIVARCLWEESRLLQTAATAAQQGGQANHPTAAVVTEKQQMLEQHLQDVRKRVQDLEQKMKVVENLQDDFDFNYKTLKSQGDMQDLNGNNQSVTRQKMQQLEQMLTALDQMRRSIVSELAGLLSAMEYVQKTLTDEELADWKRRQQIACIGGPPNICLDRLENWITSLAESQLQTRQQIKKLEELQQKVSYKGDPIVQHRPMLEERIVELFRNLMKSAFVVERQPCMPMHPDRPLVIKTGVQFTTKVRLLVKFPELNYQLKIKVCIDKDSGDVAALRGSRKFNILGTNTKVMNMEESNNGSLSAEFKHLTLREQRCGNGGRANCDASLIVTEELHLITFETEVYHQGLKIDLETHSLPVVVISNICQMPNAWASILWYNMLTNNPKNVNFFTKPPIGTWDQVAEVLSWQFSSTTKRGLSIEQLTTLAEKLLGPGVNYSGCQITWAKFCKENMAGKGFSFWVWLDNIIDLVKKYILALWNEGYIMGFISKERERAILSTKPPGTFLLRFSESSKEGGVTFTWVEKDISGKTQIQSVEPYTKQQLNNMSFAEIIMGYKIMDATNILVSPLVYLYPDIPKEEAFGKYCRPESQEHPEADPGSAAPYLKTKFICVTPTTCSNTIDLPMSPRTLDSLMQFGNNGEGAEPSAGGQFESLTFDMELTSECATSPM

Kd (STAT3 protein) | IC50 (HCC827; Homo sapiens) | IC50 (MKN45; Homo sapiens, MKN-45) | IC50 (Huh7; Homo sapiens, Huh-7) | Structure (SMILES) | IC50 (Capan-2; Homo sapiens) | IC50 (HCC827) | IC50 (MKN45) | IC50 (Capan-2) | IC50 (Huh7)
< 10 nM | < 10 nM | < 10 nM | < 10 nM | Cn1c(C(=O)N2CCN(Cc3ccc(OCC(F)(F)F)cc3)CC2)cc2ccc(Oc3cnc(-c4nc(-c5cccc(F)c5)no4)cn3)cc21 [Example 4, (6-((5-(3-(3-fluorophenyl)-1,2,4-oxadiazol-5-yl)pyrazin-2-yl)oxy)1-methyl-1H-indol-2-yl)(4-(4-(2,2,2-trifluoroethoxy)benzyl)piperazin-1-yl)methanone] | < 10 nM | – | – | – | –
< 10 nM | < 10 nM | < 10 nM | < 10 nM | COc1ccccc1-c1noc(-c2cnc(Oc3ccc4cc(C(=O)N5CCN(Cc6ccc(OCC(F)(F)F)cc6)CC5)n(C)c4c3)cn2)n1 [Example 9, (6-((5-(3-(2-methoxyphenyl)-1,2,4-oxadiazol-5-yl)pyrazin-2-yl)oxy)-1-methyl-1H-indol-2-yl) (4-(4-(2,2,2-trifluoroethoxy)benzyl)piperazin-1-yl)methanone] | < 10 nM | – | – | – | –
< 10 nM | < 10 nM | < 10 nM | < 10 nM | C=CCn1c(C(=O)N2CCN(Cc3ccc(OCC(F)(F)F)cc3)CC2)cc2ccc(Oc3cnc(-c4nc(-c5ccc(C(F)(F)F)cc5)no4)cn3)cc21 [Example 17, (1-allyl-6-((5-(3-(4-(trifluoromethyl)phenyl)-1,2,4-oxadiazol-5-yl)pyrazin-2-yl)oxy)-1H-indol-2-yl) (4-(4-(2,2,2-trifluoromethoxy)benzyl)piperazin-1-yl)methanone] | < 10 nM | – | – | – | –
< 10 nM | < 10 nM | < 10 nM | < 10 nM | Cn1c(C(=O)N2CCN(Cc3ccc(OCC(F)(F)F)cc3)CC2)cc2ccc(Oc3cnc(-c4nc(-c5ccccc5F)no4)cn3)cc21 [Example 3, (6-((5-(3-(2-fluorophenyl)-1,2,4-oxadiazol-5-yl)pyrazin-2-yl)oxy)1-methyl-1H-indol-2-yl)(4-(4-(2,2,2-trifluoroethoxy)benzyl)piperazin-1-yl)methanone] | < 10 nM | – | – | – | –
< 1000 nM | < 1000 nM | < 1000 nM | < 1000 nM | Cn1c(C(=O)N2CCN(Cc3ccc(F)cc3)CC2)cc2ccc(Oc3cnc(-c4nc(-c5ccc(C(F)(F)F)cc5)no4)cn3)cc21 [Example 26, (4-(4-fluorobenzyl)piperazin-1-yl)(1-methyl-6-((5-(3-(4-(trifluoromethyl)phenyl)-1,2,4-oxadiazol-5-yl)pyrazin-2-yl)oxy)-1H-indol-2-yl)methanone] | < 1000 nM | – | – | – | –
< 100 nM | < 1000 nM | < 1000 nM | < 1000 nM | Cc1cccc(CN2CCN(C(=O)c3cc4ccc(Oc5cnc(-c6nc(-c7ccc(C(F)(F)F)cc7)no6)cn5)cc4n3C)CC2)c1 [Example 24, (1-methyl-6-((5-(3-(4-(trifluoromethyl)phenyl)-1,2,4-oxadiazol-5-yl)pyrazin-2-yl)oxy)-1H-indol-2-yl) (4-(3-methylbenzyl)piperazin-1-yl)methanone] | < 1000 nM | – | – | – | –
< 100 nM | < 100 nM | < 100 nM | < 100 nM | CCCn1c(C(=O)N2CCN(Cc3ccc(OCC(F)(F)F)cc3)CC2)cc2ccc(Oc3cnc(-c4nc(-c5ccc(C(F)(F)F)cc5)no4)cn3)cc21 [Example 16, (1-propyl-6-((5-(3-(4-(trifluoromethyl)phenyl)-1,2,4-oxadiazol-5-yl)pyrazin-2-yl)oxy)-1H-indol-2-yl)(4-(4-(2,2,2-trifluoromethoxy)benzyl)piperazin-1-yl)methanone] | < 100 nM | – | – | – | –

Second part, the compound before the results:

Structure (SMILES) | Kd (STAT3 protein) | IC50 (HCC827; Homo sapiens) | IC50 (MKN45; Homo sapiens, MKN-45) | IC50 (Huh7; Homo sapiens, Huh-7) | IC50 (Capan-2; Homo sapiens) | IC50 (HCC827) | IC50 (MKN45) | IC50 (Capan-2) | IC50 (Huh7)
COc1ccc(-c2noc(-c3cnc(Oc4ccc5cc(C(=O)N6CCN(Cc7ccc(OCC(F)(F)F)cc7)CC6)n(C)c5c4)cn3)n2)cc1 [Example 5, (6-((5-(3-(4-methoxyphenyl)-1,2,4-oxadiazol-5-yl)pyrazin-2-yl)oxy)1-methyl-1H-indol-2-yl)(4-(4-(2,2,2-trifluoroethoxy)benzyl)piperazin-1-yl)methanone] | < 10 nM | < 10 nM | < 10 nM | < 10 nM | < 10 nM | – | – | – | –
Cn1c(C(=O)N2CCN(Cc3ccc(Br)cc3)CC2)cc2ccc(Oc3cnc(-c4nc(-c5ccc(C(F)(F)F)cc5)no4)cn3)cc21 [Example 28, (4-(4-bromobenzyl)piperazin-1-yl)(1-methyl-6-((5-(3-(4-(trifluoromethyl)phenyl)-1,2,4-oxadiazol-5-yl)pyrazin-2-yl)oxy)-1H-indol-2-yl)methanone] | < 100 nM | < 100 nM | < 100 nM | < 100 nM | < 100 nM | – | – | – | –
COc1ccc(CN2CCN(C(=O)c3cc4ccc(Oc5cnc(-c6nc(-c7ccc(C(F)(F)F)cc7)no6)cn5)cc4n3C)CC2)cc1 [Example 31, (4-(4-methoxybenzyl)piperazin-1-yl)(1-methyl-6-((5-(3-(4-(trifluoromethyl)phenyl)-1,2,4-oxadiazol-5-yl)pyrazin-2-yl)oxy)-1H-indol-2-yl)methanone] | < 100 nM | < 100 nM | < 100 nM | < 100 nM | < 100 nM | – | – | – | –
CCOC(=O)Cn1c(C(=O)N2CCN(Cc3ccc(OCC(F)(F)F)cc3)CC2)cc2ccc(Oc3cnc(-c4nc(-c5ccc(C(F)(F)F)cc5)no4)cn3)cc21 [Example 21] | < 100 nM | < 1000 nM | < 1000 nM | < 1000 nM | < 1000 nM | – | – | – | –
Cn1c(C(=O)N2CCN(Cc3ccc(Cl)cc3)CC2)cc2ccc(Oc3cnc(-c4nc(-c5ccc(C(F)(F)F)cc5)no4)cn3)cc21 [Example 27, (4-(4-chlorobenzyl)piperazin-1-yl)(1-methyl-6-((5-(3-(4-(trifluoromethyl)phenyl)-1,2,4-oxadiazol-5-yl)pyrazin-2-yl)oxy)-1H-indol-2-yl)methanone] | < 100 nM | < 100 nM | < 100 nM | < 100 nM | < 100 nM | – | – | – | –
Cn1c(C(=O)N2CCN(Cc3ccc(OCC(F)(F)F)cc3)CC2)cc2ccc(Oc3cnc(-c4nc(-c5ccccc5)no4)cn3)cc21 [Example 1, 1-methyl-(6-((5-(3-phenyl-1,2,4-oxadiazol-5-yl)pyrazin-2-yl)oxy)-1H-indol-2-yl)(4-(4-(2,2,2-trifluoroethoxy)benzyl)piperazin-1-yl)methanone] | < 10 nM | – | – | – | – | < 10 nM | < 10 nM | < 10 nM | < 10 nM
Cn1c(C(=O)N2CCN(Cc3ccc(OCC(F)(F)F)cc3)CC2)cc2ccc(Oc3cnc(-c4nc(-c5ccc(Cl)cc5)no4)cn3)cc21 [Example 11, (6-((5-(3-(4-chlorophenyl)-1,2,4-oxadiazol-5-yl)pyrazin-2-yl)oxy)-1-methyl-1H-indol-2-yl) (4-(4-(2,2,2-trifluoroethoxy)benzyl)piperazin-1-yl)methanone] | < 10 nM | < 10 nM | < 10 nM | < 10 nM | < 10 nM | – | – | – | –
O=C(c1cc2ccc(Oc3cnc(-c4nc(-c5ccc(C(F)(F)F)cc5)no4)cn3)cc2n1Cc1ccccc1)N1CCN(Cc2ccc(OCC(F)(F)F)cc2)CC1 [Example 22] | < 100 nM | < 1000 nM | < 1000 nM | < 1000 nM | < 1000 nM | – | – | – | –
COc1cccc(-c2noc(-c3cnc(Oc4ccc5cc(C(=O)N6CCN(Cc7ccc(OCC(F)(F)F)cc7)CC6)n(C)c5c4)cn3)n2)c1 [Example 10, (6-((5-(3-(3-methoxyphenyl)-1,2,4-oxadiazol-5-yl)pyrazin-2-yl)oxy)-1-methyl-1H-indol-2-yl) (4-(4-(2,2,2-trifluoroethoxy)benzyl)piperazin-1-yl)methanone] | < 10 nM | < 10 nM | < 10 nM | < 10 nM | < 10 nM | – | – | – | –
